# Data published in US20050159333A1, “Methods of modulating smooth muscle contractility” (priority 2002, published 2005).
# Where “and” joins values, the source holds several entries; their conditions need not be identical. Equal entries are not always repeated. Structures can show the parent of a compound that is named as a salt. Where two headings read alike, the source gives them in different places.
# Columns and labels:
# [1] = system: isolated male rat urinary bladder; assay: contractile responses of isolated male rat urinary bladder to the PKC activator phorbol ester; type: cell-based
# [2] = system: isolated male rat urinary bladder; assay: KCl-evoked contractions of isolated male rat urinary bladder strips (organ bath); type: cell-based
# [3] = system: isolated male rat urinary bladder; assay: electrically-evoked contractions of isolated male rat urinary bladder strips (organ bath); type: cell-based
# [4] = system: isolated male rat urinary bladder; assay: α,β-methylene ATP-evoked contractions of isolated male rat urinary bladder strips (organ bath); type: cell-based; conditions: for attenuation of α,β-methylene ATP-evoked bladder contractions: 10 μM inhibitor, 45 min, 10 μM α,β-methylene ATP
# [5] = system: isolated male rat urinary bladder; assay: carbachol-evoked contractions of isolated male rat urinary bladder strips (organ bath); type: cell-based
# [6] = biological target: protein kinase C-related protein kinase 2 (PRK2) (Homo sapiens, UniProt Q16513); conditions: Davies et al. 2000; cited from earlier work
# Sequence of protein kinase C-related protein kinase 2 (PRK2) (Q16513 whole entry, species assumed): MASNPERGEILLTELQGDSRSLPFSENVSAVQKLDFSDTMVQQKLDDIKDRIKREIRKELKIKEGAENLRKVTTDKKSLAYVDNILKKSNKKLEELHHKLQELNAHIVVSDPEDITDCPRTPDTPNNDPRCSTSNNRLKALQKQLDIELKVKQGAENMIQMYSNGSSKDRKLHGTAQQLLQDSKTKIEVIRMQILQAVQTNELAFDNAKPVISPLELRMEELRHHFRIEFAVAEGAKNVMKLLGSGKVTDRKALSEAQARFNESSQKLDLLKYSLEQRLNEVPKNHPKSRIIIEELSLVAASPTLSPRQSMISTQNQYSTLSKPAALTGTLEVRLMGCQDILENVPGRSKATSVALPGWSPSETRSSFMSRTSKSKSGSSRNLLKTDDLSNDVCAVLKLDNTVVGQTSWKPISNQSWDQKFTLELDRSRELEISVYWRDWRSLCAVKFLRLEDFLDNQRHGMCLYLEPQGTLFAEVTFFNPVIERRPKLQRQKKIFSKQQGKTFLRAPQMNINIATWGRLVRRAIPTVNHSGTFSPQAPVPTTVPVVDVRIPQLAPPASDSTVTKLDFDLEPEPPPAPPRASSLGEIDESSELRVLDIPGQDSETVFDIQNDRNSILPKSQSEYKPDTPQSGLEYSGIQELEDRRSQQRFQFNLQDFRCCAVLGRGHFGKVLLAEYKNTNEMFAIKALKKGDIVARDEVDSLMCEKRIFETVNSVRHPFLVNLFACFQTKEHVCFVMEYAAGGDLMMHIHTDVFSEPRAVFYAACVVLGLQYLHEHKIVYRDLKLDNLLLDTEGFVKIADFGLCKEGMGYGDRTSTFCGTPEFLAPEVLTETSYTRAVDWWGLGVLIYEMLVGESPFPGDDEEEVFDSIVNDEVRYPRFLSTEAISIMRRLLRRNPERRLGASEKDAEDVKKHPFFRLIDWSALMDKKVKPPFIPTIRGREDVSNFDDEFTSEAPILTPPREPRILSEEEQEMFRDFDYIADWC
# [7] = system: isolated male rat urinary bladder; assay: baseline bladder tension of isolated male rat urinary bladder strips; type: cell-based; conditions: for decrease in baseline bladder tension from baseline / relaxation (decrease in baseline bladder tension): 10 μM, 45 min incubation; for effect on baseline bladder tension / bladder tone: absence of agonist-evoked contractile responses
# PKC, human form = PKC, human form (Homo sapiens, UniProt P17252); conditions: 20 μM HA-1077; Davies et al. 2000; cited from earlier work
# [8] = system: isolated rabbit urinary bladder smooth muscle; conditions: Jezior et al. 2001, cited from earlier work
# PKC from rat brain = conditions: cited from earlier work
# isolated rabbit aorta = conditions: Seto et al. 1991; cited from earlier work
# ROCK II = conditions: Ishizaki et al. 2000; cited from earlier work
# [9] = system: isolated rabbit pulmonary artery; conditions: Fu et al. 1998; cited from earlier work
# [10] = system: other serine/threonine protein kinases; conditions: Davies et al. 2000; cited from earlier work
# [11] = system: isolated male rat urinary bladder; assay: NKA-evoked contractions of isolated male rat urinary bladder strips (organ bath); type: cell-based
# PRK1 (protein kinase N) = PRK1 (protein kinase N) (Homo sapiens, UniProt Q16512); conditions: cited from earlier work
# Sequence of PRK1 (protein kinase N) (Q16512 whole entry, species assumed): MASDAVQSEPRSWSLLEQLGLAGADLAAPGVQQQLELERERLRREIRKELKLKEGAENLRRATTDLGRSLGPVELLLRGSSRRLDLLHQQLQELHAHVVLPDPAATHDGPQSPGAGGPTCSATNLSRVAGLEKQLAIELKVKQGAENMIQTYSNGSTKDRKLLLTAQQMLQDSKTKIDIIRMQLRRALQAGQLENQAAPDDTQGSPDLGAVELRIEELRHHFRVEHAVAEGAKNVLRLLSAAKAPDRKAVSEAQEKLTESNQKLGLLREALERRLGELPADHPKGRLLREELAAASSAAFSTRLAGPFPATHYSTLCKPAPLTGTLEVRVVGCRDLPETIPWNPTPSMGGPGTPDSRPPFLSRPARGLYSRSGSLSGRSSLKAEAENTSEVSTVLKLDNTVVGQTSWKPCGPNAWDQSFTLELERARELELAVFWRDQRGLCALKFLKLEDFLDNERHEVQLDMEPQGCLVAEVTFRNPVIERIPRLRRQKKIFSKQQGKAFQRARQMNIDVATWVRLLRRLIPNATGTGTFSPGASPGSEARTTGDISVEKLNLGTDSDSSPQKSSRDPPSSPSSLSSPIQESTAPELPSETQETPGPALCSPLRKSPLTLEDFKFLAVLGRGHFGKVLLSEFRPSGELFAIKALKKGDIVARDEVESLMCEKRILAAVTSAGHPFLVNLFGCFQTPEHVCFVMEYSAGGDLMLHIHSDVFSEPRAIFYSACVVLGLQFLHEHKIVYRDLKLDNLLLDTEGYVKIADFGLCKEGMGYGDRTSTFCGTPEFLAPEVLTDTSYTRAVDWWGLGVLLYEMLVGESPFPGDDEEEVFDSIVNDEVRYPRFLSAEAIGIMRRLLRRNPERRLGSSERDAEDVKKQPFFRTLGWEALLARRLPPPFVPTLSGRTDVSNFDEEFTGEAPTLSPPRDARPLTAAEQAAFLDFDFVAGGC
# [12] = Y-27632 10 μM, unpublished observations
# [13] = Rattus norvegicus, read-out: antagonist affinity (pKb) (converted)
# [14] = all frequencies (2, 4, 8, 16 Hz), Y-27632 10 μM, atropine 1 μM, α,β-methylene ATP 10 μM
# [15] = vehicle experiments, at 3×10^−7 M NKA
structure (smiles),measurement,setting,value
CN(C)CCCn1cc(C2=C(c3c[nH]c4ccccc34)C(=O)NC2=O)c2ccccc21 [GF109203X],effect on contractile responses to the PKC activator phorbol ester,[1],inhibited
"[Cl-].[K+] [KCl, potassium chloride]",maximal response to KCl,[2],8.7 ± 0.5 g
same,EC50,[2]; read-out: KCl EC50 in the absence of antagonist,31000 ± 4300 µM
"NC1=N[C@H](O)[C@H]2[C@H]3O[C@]4(O)O[C@@H]([C@@H](O)[C@@]2(N1)[C@@H]4O)[C@]3(O)CO [TTX, tetrodotoxin]",effect on frequency-response curves to electrical stimulation,[3],abolished
"Nc1ncnc2c1ncn2[C@@H]1O[C@H](COP(=O)(O)CP(=O)(O)OP(=O)(O)O)[C@@H](O)[C@H]1O [α,β-methylene ATP]","mean amplitude of contractile responses evoked by α,β-methylene ATP",[4],3.9 ± 0.5 g
"C[N+](C)(C)CCOC(N)=O.[Cl-] [carbachol, carbamylcholine chloride]",EC50,"[5]; Rattus norvegicus, read-out: carbachol EC50 in the presence of Y-27632",1.03 ± 0.336 µM
same,Emax at 10 µM,"[5]; Rattus norvegicus, vehicle experiments, at 10^−5 M carbachol, read-out: maximal response to carbachol as % of the response to 100 mM KCl",105 ± 28.2%
same,EC50,"[5]; Rattus norvegicus, vehicle experiments, read-out: carbachol EC50 in the absence of antagonist",0.183 ± 0.0689 µM
same,maximal response to carbachol,"[5]; vehicle experiments, at 10^−5 M carbachol",5.3 ± 0.9 g
"O=S(=O)(c1cccc2cnccc12)N1CCCNCC1 [HA-1077, fasudil]",effect on PRK2,[6],inhibited
same,decrease in baseline bladder tension from baseline,[7],36.1±1.6%
same,relaxation (decrease in baseline bladder tension),[7],0.30 ± 0.01 g
same,effect on baseline bladder tension / bladder tone,[7],decreased bladder tone
same,inhibitory effect on the human form of PKC,"PKC, human form",no significant inhibitory effects
same,effect on bethanechol-evoked contractions,[8],attenuate
same,Ki,PKC from rat brain,9.3 µM
same,"attenuation of α,β-methylene ATP-evoked bladder contractions",[4],22.1±5.7% and 22±6%
same,effect on contractile responses to the PKC activator phorbol ester,[1]; [12],no inhibitory effects
same,effect on PG-evoked contractions,isolated rabbit aorta,inhibits
"C[C@@H](N)[C@H]1CC[C@H](C(=O)Nc2ccncc2)CC1 [Y-27632, (+)-(R)-trans-4-(1-amino-ethyl)-N-(4-pyridyl) cyclohexanecarboxamide dihydrochloride monohydrate]",Ki,ROCK II,0.3 µM
same,effect on PRK2,[6],inhibited
same,decrease in baseline bladder tension from baseline,[7],47.0±2.5%
same,relaxation (decrease in baseline bladder tension),[7],0.40 ± 0.05 g
same,effect on baseline bladder tension / bladder tone,[7],decreased bladder tone
same,effect on AA-evoked contractile responses,[9],attenuated
same,effect on a large number of other serine/threonine protein kinases,[10],minimal effect
same,effect on NKA-induced contractions,"[11]; 10 μM Y-27632, all concentrations of agonist",significantly attenuated
same,attenuation of NKA-evoked bladder contractions,"[11]; 10 μM Y-27632, at 10^−6 M",69±13%
same,Kb,[11]; [13],2.51 µM
same,inhibition at 10 µM,"[11]; Rattus norvegicus, read-out: inhibition of NKA-induced contractions",68.6 ± 12.7%
same,effect on contractile response to KCl,"[2]; 10 μM Y-27632, KCl 10-100 mM, dihydrochloride monohydrate",no measureable effect
same,inhibition of carbachol-evoked contractions,"[5]; 10 μM Y-27632, 45 min pretreatment, at 3×10^−6 M carbachol, dihydrochloride monohydrate",58±11%
same,effect on carbachol-evoked contractions,"[5]; 10 μM Y-27632, 10^−5-10^−4 carbachol",this inhibition was not significant
same,effect on carbachol-evoked contractions,"[5]; 10 μM Y-27632, 10^−9-3×10^−6 M carbachol",significantly attenuated
same,inhibition at 10 µM,"[5]; Rattus norvegicus, 10 μM Y-27632, 45 min pretreatment, at 3×10^−6 M carbachol",58.1 ± 10.5%
same,Kb,[5]; [13],2.14 µM
same,degree of attenuation of G protein-coupled receptor contractile responses (carbachol and NKA),"[5]; Y-27632 10 μM, carbachol and NKA responses together",approximately 50%
same,effect on carbachol-evoked contractions,[5]; pretreatment with 1 and 3 μM Y-27632,no effect
same,Ki,PRK1 (protein kinase N),3.1 µM
same,effect on bethanechol-evoked contractions,[8]; dihydrochloride monohydrate,attenuates
same,"attenuation of α,β-methylene ATP-evoked bladder contractions",[4]; dihydrochloride monohydrate,30.0±7.2% and 30±7% and ~30%
same,effect on contractile responses to the PKC activator phorbol ester,[1]; [12],no effect
same,effect on AUC of electrically-evoked bladder contractions,[3]; [14],significantly attenuated
same,effect on amplitude of electrically-evoked bladder contractions,[3]; [14],significantly attenuated
"CSCC[C@H](NC(=O)[C@H](CC(C)C)NC(=O)CNC(=O)[C@@H](NC(=O)[C@H](Cc1ccccc1)NC(=O)[C@H](CO)NC(=O)[C@H](CC(=O)O)NC(=O)[C@@H](NC(=O)[C@H](CCCCN)NC(=O)[C@@H](N)Cc1c[nH]cn1)[C@@H](C)O)C(C)C)C(N)=O [NKA, Neurokinin A]",EC50,"[11]; read-out: NKA EC50 in the presence of Y-27632, 10 μM Y-27632",0.0324 µM
same,maximal response to NKA,[11]; [15],4.2 ± 0.4 g
same,maximal response to NKA as % of the response to 100 mM KCl,[11]; [15],136.2±24.8%
